{"source": "patent US11419902B2", "about": "“Compositions comprising bacterial strains” (4D Pharma Research Limited, priority 2018, dated 2022)", "key": {"IL-8 [1]": {"tested_on": "IL-8", "assay": "IL-8 secretion by differentiated HT29-mtx cells", "type": "cell-based", "conditions": "24 h, vs untreated and YCFA+-treated cells", "source_text": "The ability of MRx0029 to cause any intestinal barrier dysfunction was investigated. HT29-mtx epithelial, mucin-producing cell monolayers were used as an in vitro model to evaluate gut barrier disruption and immune stimulation following treatment with MRx0029."}, "MAP2": {"tested_on": "MAP2", "assay": "MAP2 gene expression in SKMEL2 cell line (qPCR)", "type": "cell-based", "conditions": "SKMEL2, relative to both negative controls (cell line only, and YCFA+)", "experimental": "Cells were plated in 12-well plates at density of 2×10^5 cells/well. After 24 h cells were treated with either DMSO or Vemurafenib (662005; EMD Millipore; VEMU; SKMEL28, SKMEL31, 451Lu, HT29 (1 μM) SKMEL2 (10 μM) or Azacytidine-C (A3656; Sigma Aldrich; AzaC; 5 μg/ml) or both drugs (VEMU+Aza) together, in presence of 10% bacteria supernatants or absence of it (YCFA+). Total RNA was extracted using the RNeasy mini kit (Qiagen, Manchester, UK) according to the manufacturer's instructions, and the RNA concentration was determined by spectrophotometer at 260/280 nm (NanoDrop ND-1000; Thermo Fisher Scientific, Loughborough). For mRNA expression analysis, cDNA was prepared from 2000 ng of total RNA using the High-Capacity cDNA reverse transcription kit (Thermo Fisher, Loughborough) according to the manufacturer's instructions. The reverse transcription reactions were performed in a thermocycler (Biometra, Germany) at 25° C. for 10 min, 37° C. for 120 min, and 85° C. for 5 min Resulting cDNA was amplified in duplicates by the SYBR-Green PCR assay, and products were detected on QuantStudio 6 flex real-time PCR machine (Applied Biosystems, UK) using a standardised profile (initial denaturation of 95° C. for 10 minutes, followed by 40 cycles of 10 seconds of denaturation at 95° C. and 30 seconds of annealing/extension at 65° C.). […]"}, "[2]": {"tested_on": "ERK signalling (phosphorylated ERK1 and 2/total ERK)", "assay": "ERK signalling in SKMEL31 cell line (Western blot)", "type": "cell-based", "conditions": "SKMEL31, relative to the negative control (YFCA+)", "experimental": "Following 24 h treatment with the appropriate drugs either in presence of 10% bacterial supernatant or absence (YCFA+), protein extracts were obtained by lysing cells in RIPA buffer (R0278; Sigma Aldrich) supplemented with protease inhibitors (cOmplete Protease Inhibitor Cocktail Tablets; Roche, Switzerland) and 1 mM/L sodium orthovanadate, 0.5 mM/L PMSF. Protein quantification was done by the BCA protein assay. Equal amounts of total protein (20 μg/lane) were then separated by SDS-PAGE on 4-15% gradient gel (BioRad) and transferred to polyvinylidene difluoride (PVDF) membranes (Thermo Fisher Scientific, Loughborough). […]\nProteins of interest were detected with the appropriate HRP-conjugated secondary antibody (1:10,000, Thermo Fisher Scientific, Loughborough), developed with the ECL Western blotting Super Signal PicoPlus substrate (34577; Thermo Fisher Scientific, Loughborough), and visualised in Chemidoc XRS Imager (BioRad).\nThe effects of the following treatments were assessed on the SKMEL31 melanoma cell line (heterozygous for BRAF V600E): (1) MRx0029; (2) Vemurafenib (VEMU) in YFCA+ medium; (3) VEMU and MRx0029; (4) Azacytidine-C (Aza-c) in YFCA+ medium; (5) Aza-c and MRx0029; (6) VEMU, Aza-c and MRx0029."}, "[3]": {"tested_on": "neuron specific enolase (NSE)/enolase 2", "assay": "Suppression of neuron specific enolase (NSE)/enolase 2 (Example 18)", "type": "cell-based", "conditions": "FIG. 57"}, "IL-8 [4]": {"tested_on": "IL-8", "assay": "IL-8 secretion in U373 cells treated with SCFAs or supernatant fractions (ELISA)", "type": "cell-based, Human", "conditions": "U373 cells, with or without 1 μg/ml LPS, 24 h", "experimental": "Human glioblastoma astrocytoma cell line (U373), were maintained in 25 ml MEME 4.5 g/L D-glucose supplemented with 10% heat-inactivated FBS, 4 mM L-Glutamine, 100 U/ml penicillin, 100 μg/ml streptomycin and 5 μg/ml plasmocin, 1% Non-Essential Amino Acids, 1% Sodium Pyruvate (referred to as full growth media).\nU373 cells were prepared as described above. Cells were pre-treated for 1 h with 1 μg/ml LPS indicated above and incubated at 37° C. and 5% CO2. After 1 h pre-incubation, cells were removed from CO2 incubator and treated with increasing concentration of fresh prepared Sodium Butyrate (SB), Sodium Valerate (SV) and Hexanoic Acid (HA).\nU373 cells were prepared as described above. Cells were pre-treated for 1 h with 1 μg/ml LPS as indicated above. Afterwards, cells were removed from CO2 incubator and treated with 100 μl of the different fractions. Fractions from media were used as controls. Cell-free supernatants were collected 24 h after treatment and analysed by ELISA for IL-8 secretion (as outlined above)."}, "IL-6, CD11b, TLR4": {"tested_on": "IL-6, CD11b, TLR4", "assay": "Gene expression in the brain of BALB/c mice (qPCR)", "type": "in vivo", "conditions": "vs vehicle control", "experimental": "BALB/c mice were administered live biotherapeutic and tissues were isolated for analysis of gene expression using qPCR."}}}
{"substance": "Megasphaera massiliensis MRx0029", "values": [{"measurement": "secretion of IL-8", "setting": "IL-8 [1]", "result": "even lower secretion of IL-8"}, {"measurement": "MAP2 gene expression", "setting": "MAP2", "result": "increased MAP2 gene expression"}, {"measurement": "ERK signalling", "setting": "[2]", "result": "reduced ERK signalling"}, {"measurement": "neuron specific enolase (NSE)/enolase 2", "setting": "[3]", "result": "statistically-significant effect suppressing"}, {"measurement": "IL-8 secretion in the presence and absence of LPS", "setting": "IL-8 [4]", "result": "induced IL-8 secretion"}, {"measurement": "TLR4 expression in the amygdala", "setting": "IL-6, CD11b, TLR4", "result": "significantly increase TLR4 expression"}]}
